Measurements as given in US20160274120A1, “METHODS OF DETERMINING WHETHER THE WNT SIGNALING PATHWAY IS UPREGULATED IN A TUMOR” (ICAHN SCHOOL OF MEDICINE AT MOUNT SINAI, priority 2009, published 2016).

What was measured:
Type in all cases: cell-based, human
Wnt2 = test: shRNA knockdown quantification of Wnt2 mRNA; conditions: H23 cells, lentiviral shRNA
From the text: (§1) An shRNA construct targeting human Wnt2 was obtained from Open Biosystems. The 21 bp sequence was 5′-[…]-3′ (SEQ ID NO: 1). An shRNA construct targeting GFP containing 21 bp sequence 5′ […]-3′ (SEQ ID NO: 2), was obtained from Addgene. An shRNA construct targeting human Wnt3a was generated and had the following sequence 5′-GGCGTGGCTTCTGCAGAA-3′ (SEQ ID NO: 61). Viruses were produced in 293T cells using FuGENE 6 (Roche) as described above.
(§2) Total RNA was isolated from cells using the Trizol Reagent (Invitrogen) according to the manufacturer's protocol. Semi-quantitative RT-PCR screen was performed using One Step RT-PCR Kit (Invitrogen) according to the manufacturer's protocol. PCR products were separated on 1% agarose gel. 5 μg total RNA was reverse transcribed using Superscript II reverse transcriptase (Invitrogen). Quantitative PCR was performed using SybrGreen 2× master mix (Roche) on a MJ Opticon or Stratagene MxPro3005. 50 ng cDNA were amplified as follows: 94° C. for 15 min, 94° C. for 15 s, 60° C. for 30 s, 72° C. for 1 min. Steps 2 through 4 were repeated for 40 cycles. Each reaction was performed in duplicate, and results of 3 independent experiments were used for statistical analysis. Relative mRNA expression levels were quantified using the ΔΔC(t) method (Pfaffl, 2001). Results were normalized to those for TATA Binding Protein (TBP). Primer sequences can be found in Tables 4 and 5.

axin2 = test: Real time PCR quantification of axin2 mRNA expression in NSCLC cells
Method: as §2

TCF reporter activity = test: TCF mediated luciferase reporter activity (TOP/FOP) in NSCLC cell lines
Method: 24 hours before infection, stable reporter cell lines expressing TOP or FOP TCF luciferase and renilla luciferase were plated in 6 well plates at I×IO^5 cells/well. The following day cells were infected with lentiviruses expressing different Wnt antagonists, selected with 2 μg/ml puromycin for 3 days, lysed and processed for luciferase reporter assay using the dual luciferase reporter Kit (Promega) according to the manufacturer's protocol. Luciferase reporter activity was calculated by dividing the ratio TOP/RL by the FOP/RL ratio. Results were normalized to the results with vector transduced cultures.
analysis, cells were co-infected with TOP or FOP firefly luciferase mixed with a lentivirus expressing renilla luciferase (RL) used to normalize for infection efficiency (1:20-1:40 ratio). To assess the effects of FRP1 and DKK1 on TCF luciferase reporter activity, stable reporter cell lines were plated in 6 well plates and infected with vector, FRP1 or DKK1 lentiviruses. Cells were selected for 3 days with puromycin, lysed and processed for dual luciferase analysis. To generate stable inducible lines, cells were infected consecutively with tetracycline trans-activator (tTa) expressing lentivirus, selected for two weeks with 5-10 μg/ml blasticidin, followed by a second infection with lentiviruses expressing inducible FRP1, DKK1, DNTCF-4 or DNTCF-4-mOrange or empty vector, and selected for 4-7 days in 2 μg/ml puromycin in the presence of 10 ng/ml doxycycline. For induction of the antagonists, cells were trypsinized, washed with PBS and plated into 10 cm plates in the presence or absence of doxycyclin. Control cells expressing tTa or empty vector were processed in the same way. All infections were performed for 16 hr in the presence of 8 μg/ml polybrene.

Wnt3a = test: shRNA knockdown quantification of Wnt3a mRNA; conditions: H1819 cells, lentiviral shRNA
From the text: as §1, §2

Substance: Wnt2 shRNA: shRNA construct targeting human Wnt2 from Open Biosystems, 5′-GCTCATGTACTCTCAGGACAT-3′ (SEQ ID NO: 1) (GCTCATGTACTCTCAGGDCAT; chemistry not fully specified) [reference compound]
- knock down of Wnt2 mRNA expression (Wnt2): 80%
- axin2 expression (axin2; H23 cells, Wnt2 knockdown): significant decrease
- TCF mediated luciferase reporter activity (TCF reporter activity; H23 cells, Wnt2 knockdown): significant decrease

Substance: Wnt3a shRNA: shRNA construct targeting human Wnt3a, 5′-GGCGTGGCTTCTGCAGAA-3′ (SEQ ID NO: 61) [reference compound]
- knock down of Wnt3a mRNA expression (Wnt3a): 70%
- axin2 expression (axin2; H1819 cells, Wnt3a knockdown): significant decrease
- TCF mediated luciferase reporter activity (TCF reporter activity; H1819 cells, Wnt3a knockdown): significant decrease
